Reference: patent US11866416B2, “Streptococcus mutans glucosyl transferase inhibitors for dental caries therapy” (UAB Research Foundation, priority 2018, dated 2024)
≈ marks a conversion by molar mass, not a printed value. Read-outs that look alike come from different tables or passages of the source.

Tests used:
[1] = tested on: S. mutans; assay: microbe, parasite or virus in culture; assay type: cell-based, Streptococcus mutans; details: for Growth MIC50: Table 8, stilbenes
Outline: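 Mid-exponential cultures (OD470 0.6) in THB were exposed to compound concentrations for 16 h, with growth read at OD470 and normalised to 1% DMSO control (100%). CFU/mL were also counted after 24 h at 37 °C and compared with the DMSO control.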

[2] = tested on: S. mutans Gtfs; assay: Gtf zymographic assay with SDS-PAGE; assay type: biochemical, Streptococcus mutans; details: for glucan production in zymogram assay: stilbenes, versus DMSO control
Experimental: A well-established zymographic assay was used to determine enzymatic activity of Gtfs (Mattos-Graner et al. (2004) J. Clin. Microbiol. 42, […]). In brief, overnight S. mutans UA159 cultures were diluted 1:100 in fresh 5 mL THB with 50 μL of selective compounds at a series of concentrations. Treated bacteria were grown to OD470 of 1.0, and spun down by centrifugation at 4° C., and culture supernatants were collected and filtered through a 0.22-μm-pore-size filter membrane to remove residual bacterial cells and dialyzed at 4° C. against 0.02 M sodium phosphate buffer (pH 6.8), with 10 μM phenylmethylsulfonyl fluoride (PMSF), followed by a second dialysis against 0.2 mM sodium phosphate containing 10 μM PMSF. After dialysis, 4 mL of samples were concentrated to 40 μL by 100K Amicon Ultra-4 centrifugal filter (Merck Millipore Ltd.). For electrophoresis and zymographic analysis, 10 μL of each concentrated culture supernatant was applied to 8% SDS-PAGE in duplicate. One gel was used for protein staining with Coomassie blue dye, while the other one was subjected to zymographic assay as described (Mattos-Graner et al. (2004) J. Clin. Microbiol. 42, […]). The resultant white opaque glucan bands were visualized against a black background.
Inhibition of the activity of Gtfs determined by zymographic assays. Well established zymographic assay was used to determine enzymatic activity of Gtfs. In brief, overnight S. mutans UA159 cultures were diluted 1:100 in fresh 5 mL THB. Bacteria were grown to OD470 of 1.0, and spun down by centrifugation at 4° C. and culture supernatants were collected and filtered through a 0.22-μm-pore-size filter membrane to remove residual bacterial cells and dialyzed at 4° C. against 0.02 M sodium phosphate buffer (pH 6.8), with 10 μM phenylmethylsulfonyl fluoride (PMSF), followed by a second dialysis against 0.2 mM sodium phosphate containing 10 μM PMSF. After dialysis, 4 mL of samples were concentrated to 40 μL by 100K Amicon Ultra-4 centrifugal filter (Merk Millipore Ltd.). For electrophoresis and zymographic analysis, 10 μL of each concentrated culture supernatant was applied to 8% SDS-PAGE in duplicate. One gel was used for protein staining with Coomassie blue dye, while the other one was subjected to zymographic assay. For zymogram analysis, following electrophoretic separation, gels were washed twice for 15 min each with renaturing buffer containing 2.5% Triton X-100. Gels were then incubated for 18 h at 37° C. with 0.2 M sodium phosphate buffer (pH 6.5) containing 0.2% dextran T70, 5% sucrose, and varying concentrations of the small molecule inhibitors. The reactions were stopped by washing gels with distilled water at 4° C. for 10 min, and digital images of the resultant white opaque glucan bands were visualized against a black background and captured using a digital camera.
Inhibition of the activity of Gtfs determined by zymographic assays. A well-established zymographic assay was used to determine enzymatic activity of Gtfs (Mattos-Graner, R. O., Napimoga, M. H., Fukushima, K., Duncan, M. J., Smith, D. J., J Clin Microbiol, 2004, 42, 4586). In brief, overnight S. mutans UA159 cultures were diluted 1:100 in fresh 5 mL THB with 50 μL of selective compounds at a series of concentrations. Treated bacteria were grown to OD470 of 1.0, and spun down by centrifugation at 4° C., and culture supernatants were collected and filtered through a 0.22-μm-pore-size filter membrane to remove residual bacterial cells and dialyzed at 4° C. against 0.02 M sodium phosphate buffer (pH 6.8), with 10 μM phenylmethylsulfonyl fluoride (PMSF), followed by a second dialysis against 0.2 mM sodium phosphate containing 10 μM PMSF. After dialysis, 4 mL of samples were concentrated to 40 μL by 100K Amicon Ultra-4 centrifugal filter (Merk Millipore Ltd.). For electrophoresis and zymographic analysis, 10 μL of each concentrated culture supernatant was applied to 8% SDS-PAGE in duplicate. […]

[3] = Streptococcus mutans, Table 3, >300 = no inhibition up to 300 μM, NI = no inhibition up to 400 μM, read-out: Growth Inhibition MIC50
[4] = Streptococcus mutans, Table 4, stilbenes, average of at least 5 measurements, NI = no inhibition, read-out: Growth MIC50
[5] = average of at least 5 measurements, NI = no inhibition

Row | Structure (SMILES) | S. mutans cell viability (CFU) versus control ([1]; up to 200 μM) | glucan production of the Gtfs in zymographic assay ([2]; 25 μM, Gtfs from wild type S. mutans) | glucan bands in zymographic assay ([2]; 50 μM, Gtfs from S. mutans UA159 supernatants) | inhibition of S. mutans cell viability (%) at 400 µM ([1]; Streptococcus mutans, 400 μM) | MIC50 [1, 3] | MIC50 [1, 4] | inhibition at 52 µM ([1]; Streptococcus mutans, at 52 μM, read-out: growth of S. mutans inhibited) | Growth MIC50 [1, 5] | glucan production in zymogram assay [2]
1 | NC(=O)c1ccccc1NC(=O)c1cc2cc([N+](=O)[O-])ccc2s1 [#G43] | No significant difference | drastically reduced the glucan production | drastically reduced the glucan bands |  |  |  |  |  | 
2 | Oc1cc(O)cc(/C=C/c2ccc(O)c(O)c2)c1 [Piceatannol] |  |  |  | 37% | 564 ± 38 µM (≈ 138 µg/mL) | 564 ± 37.8 µM (≈ 138 µg/mL) | < 10% | 564 ± 37.8 µM | greatly reduced glucan production
3 | Oc1ccc(/C=C/c2cc(O)cc(O)c2)cc1 [Resveratrol, reference compound] |  |  |  |  | 546 ± 16 µM (≈ 125 µg/mL) | 546 ± 15.9 µM (≈ 125 µg/mL) |  | 546.4 ± 15.9 µM | marginal inhibition
